We go through 28 molecules from the supplement of paper PMC12613149.

Data set [1] in a line: collision cross section (TIMS, N2 drift gas) of the primary ion; higher = larger gas-phase ion size.
Data set [2] is described as follows: reversed-phase LC retention time (C18, 15 min MeOH gradient); higher = more hydrophobic / later elution.
[3] abbreviates: ionization mode: ESI+, ion species: [M+H]+.
Where [4] appears, read: ionization mode: ESI-, ion species: [M-H]-.

In the case of `CC(C)(O)c1ccccc1CCC(SCC1(CC(=O)O)CC1)c1cccc(C=Cc2ccc3ccc(Cl)cc3n2)c1` (centres undefined) [Montelukast], the figures for the collision cross section in data set [1] (setting [3]) and in data set [1] (setting [4]) were 243.08 Å² and 244.69 Å², respectively. The “reversed-phase LC retention time” value is 17.7 min in data set [2] (setting [3]) and 17 min in data set [2] (setting [4]).
`CCCCC(C#N)(Cn1cncn1)c1ccc(Cl)cc1` (centres undefined) [Myclobutanil] came in with a collision cross section in data set [1] (setting [3]) of 175 Å². In addition, the “reversed-phase LC retention time” value in data set [2] (setting [3]) is 14.5 min.
For `COc1c(C)c2c(c(O)c1C/C=C(\C)CCC(=O)O)C(=O)OC2` [Mycophenolic acid], the collision cross section in data set [1] (setting [3]) is on record as 169.04 Å²; in data set [1] (setting [4]) it was 175.76 Å². The “reversed-phase LC retention time” value in data set [2] (setting [3]) amounted to 13.4 min; in data set [2] (setting [4]), 11.3 min.
On to `CC(C)(C)CC(C)(C)c1ccc(Nc2ccc(C(C)(C)CC(C)(C)C)cc2)cc1` [N,N-Bis(4-tert-octylphenyl)amine], for which the collision cross section in data set [1] (setting [3]) came out at 220.04 Å². The “reversed-phase LC retention time” value in data set [2] (setting [3]) was found to be 20.2 min.
For `CCCCN(C=O)CCCC` [N,N-Di-n-butylformamide] the same measures were 141.17 Å² and 13.5 min.
In data set [1] (setting [3]), `CCCCCCCCCC(=O)N(C)C` [N,N-Dimethyldecan-1-amide] showed a collision cross section of 159.08 Å². For the same molecule, the “reversed-phase LC retention time” value in data set [2] (setting [3]) is 16.1 min.
For `CCCCCCCCCCN(C)C` [N,N-Dimethyldecylamine] the same measures were 158.65 Å² and 13.7 min.
In data set [1] (setting [3]), `CCCCCCCCCCCC[N+](C)(C)[O-]` [N,N-Dimethyldodecylamine N-oxide] registered a collision cross section of 175.77 Å². The “reversed-phase LC retention time” value in data set [2] (setting [3]) is 15.6 min.
`CCCCCCCCCCCCN(C)C` [N,N-Dimethyldodecylamine] came in with a collision cross section in data set [1] (setting [3]) of 169.68 Å². In addition, in data set [2] (setting [3]), the “reversed-phase LC retention time” value is 15.4 min.
`CCCCCCCCCCCCCC[N+](C)(C)[O-]` [N,N-Dimethyltetradecylamine-N-oxide] registered a collision cross section in data set [1] (setting [3]) of 184.89 Å². In addition, the “reversed-phase LC retention time” value in data set [2] (setting [3]) is 16.8 min.
`CCCCCCCCCCCCCCN(C)C` [N,N-Dimethyltetradecylamine] gave a collision cross section in data set [1] (setting [3]) of 179.2 Å². In addition, the “reversed-phase LC retention time” value in data set [2] (setting [3]) was found to be 16.6 min.
Regarding `C=C(C)C(=O)NCCCN(C)C` [N-(3-Dimethylamino)propyl)methacrylamide], the collision cross section in data set [1] (setting [3]) came to 136.2 Å². Also, the “reversed-phase LC retention time” value in data set [2] (setting [3]) was 3.22 min.
As for `CC(=O)Nc1c(C)n(C)n(-c2ccccc2)c1=O` [N-Acetyl-4-aminoantipyrine], in data set [1] (setting [3]), the collision cross section came out at 154.74 Å². In addition, the “reversed-phase LC retention time” value in data set [2] (setting [3]) was determined as 7.85 min.
`CCCCNS(=O)(=O)c1ccccc1` [N-Butylbenzenesulfonamide] displayed a collision cross section in data set [1] (setting [4]) of 148.3 Å². The “reversed-phase LC retention time” value in data set [2] (setting [4]) amounted to 12.8 min.
For the molecule `c1ccc2sc(NC3CCCCC3)nc2c1` [N-Cyclohexyl-2-benzothiazole-amine], the collision cross section is given as 155.21 Å² in data set [1] (setting [3]) and 157 Å² in data set [1] (setting [4]). Further, the “reversed-phase LC retention time” value in data set [2] (setting [3]) was 14.1 min; in data set [2] (setting [4]), 15.9 min.
In data set [1] (setting [3]), `CCNC(=O)c1cccc(C)c1` [N-Ethyl-3-methylbenzamide] came in with a collision cross section of 135.66 Å². In data set [2] (setting [3]), the “reversed-phase LC retention time” value amounted to 10.7 min.
In turn, `CCNS(=O)(=O)c1ccccc1C` [N-Ethyl-o-toluenesulfonamide] showed a collision cross section in data set [1] (setting [4]) of 143.19 Å². Moreover, the “reversed-phase LC retention time” value in data set [2] (setting [4]) was determined as 11.5 min.
`Cc1c(NC=O)c(=O)n(-c2ccccc2)n1C` [N-Formyl-4-aminoantipyrine] displayed a collision cross section in data set [1] (setting [3]) of 149.16 Å². In data set [2] (setting [3]), the “reversed-phase LC retention time” value worked out at 7.74 min.
`CCCCCCCCCCCC(=O)NCCO` [N-Lauroylethanolamine]: in data set [1] (setting [3]), the collision cross section turned out to be 175.51 Å². Moreover, the “reversed-phase LC retention time” value in data set [2] (setting [3]) was found to be 16.4 min.
In data set [1] (setting [3]), `CN(C1CCCCC1)C1CCCCC1` [N-Methyl-dicyclohexylamine] returned a collision cross section of 148.45 Å². The “reversed-phase LC retention time” value in data set [2] (setting [3]) came to 9.45 min.
Consider `CNS(=O)(=O)c1ccccc1` [N-Methylbenzenesulfonamide], for which, in data set [1] (setting [4]), the collision cross section was found to be 134.48 Å². For the same molecule, in data set [2] (setting [4]), the “reversed-phase LC retention time” value came out at 8.4 min.
`CCCCCCCCCCCCNC` [N-Methyldodecylamine] had a collision cross section in data set [1] (setting [3]) of 167.22 Å². For the same molecule, the “reversed-phase LC retention time” value in data set [2] (setting [3]) was 15.5 min.
In data set [1] (setting [3]), `c1ccc(Nc2cccc3ccccc23)cc1` [N-Phenyl-1-naphthylamine] came in with a collision cross section of 153.28 Å². The “reversed-phase LC retention time” value in data set [2] (setting [3]) is 16.1 min.
Take `CC(C)Nc1ccc(Nc2ccccc2)cc1` [N-isopropyl-N-phenyl-p-phenylenediamine]: in data set [1] (setting [3]), the collision cross section worked out at 171.67 Å². The “reversed-phase LC retention time” value in data set [2] (setting [3]) was 8.47 min.
`CCN(CC)C(=O)C(C)Oc1cccc2ccccc12` (centres undefined) [Napropamide]: the collision cross section in data set [1] (setting [3]) amounted to 164.64 Å². Also, the “reversed-phase LC retention time” value in data set [2] (setting [3]) turned out to be 14.9 min.
In data set [1] (setting [3]), `COc1ccc2cc(C(C)C(=O)O)ccc2c1` (centres undefined) [Naproxen] gave a collision cross section of 151.76 Å². The “reversed-phase LC retention time” value in data set [2] (setting [3]) turned out to be 13.8 min.
In the case of `COc1cc(OC)nc(NC(=O)NS(=O)(=O)c2ncccc2C(=O)N(C)C)n1` [Nicosulfuron], the collision cross section in data set [1] (setting [3]) is recorded as 193.46 Å²; in data set [1] (setting [4]), 194.5 Å². Also, the “reversed-phase LC retention time” value in data set [2] (setting [3]) worked out at 11.4 min; in data set [2] (setting [4]), 8.07 min.
As to `CN1CCCC1c1cccnc1` (centres undefined) [Nicotine], the collision cross section in data set [1] (setting [3]) came out at 135.54 Å². The “reversed-phase LC retention time” value in data set [2] (setting [3]) is 2.26 min.
